Results from patent publication US20260248963A1, “COMPOSITIONS FOR TREATING CANCER WITH KRAS MUTATIONS AND USES THEREOF” (AADIGEN, LLC, priority 2023, published 2026).

Columns and labels:
Assay type in all cases: cell-based
[1] = tested on: MTRX-1133 resistant PANC-1 cells; assay: Cell growth inhibition assay, MTRX-1133 resistant PANC-1
Procedure: (§1) To identify mutations or regulatory mechanisms that would confer acquired resistance to KRAS^G12D inhibitor MTRX1133, ASPC-1 and PANC-1 cells harboring KRAS G12D were exposed to increasing concentrations of MTRX-1133 (up to 20 μM). […] Clones resistant to KRAS^G12D inhibitor were generated during the course of the treatment.
(§2) ADGN-123 nanoparticle corresponds to gRNA35A5 sgRNA/Cas9 mRNA (1/1 molar ratio) associated with ADGN peptide (ADGN-106-Hydro3 peptide or ADGN-108-R9) at molar ratio 20/1 (peptide/nucleic acid). ADGN-123 nanoparticles were evaluated on the three stable MTRX-1133 resistant PANC-1 clones and two ASPC-1 clones. PANC-1-C1, PANC-1-C2, PANC-1-C3, ASPC-1-C1 and ASPC-1-C2. Cells were cultured in 96-well plate format and treated with free mRNACas9-gRNA, or ADGN-123 (ADGN/mRNACas9-gRNA) complex (from 0.1-10 μM) on day 1. Cell proliferation was analyzed over a period of 5 days using CellTiter Glow kits on GlowMax (Promega) and cytotoxicity was analyzed at 72 hr after treatment using CellTiter Glow or MTT assays kits.

[2] = tested on: parental ASPC-1 cells harboring KRAS G12D; assay: Growth suppression of parental ASPC-1 cells
Procedure: as §1

[3] = tested on: parental PANC-1 cells harboring KRAS G12D; assay: Growth suppression of parental PANC-1 cells
Procedure: as §1

[4] = tested on: MTRX-1133 resistant ASPC-1 cells; assay: Cell growth inhibition assay, MTRX-1133 resistant ASPC-1
Procedure: as §1, §2

IC50 [1]: 4.75 ± 0.212 µM
IC50 [4]: 2.08 ± 0.203 µM
SMILES: C#Cc1c(F)ccc2cc(O)cc(-c3ncc4c(N5CC6CCC(C5)N6)nc(OC[C@@]56CCCN5C[C@H](F)C6)nc4c3F)c12 [MTRX-1133]
Lowest concentration that suppressed the growth of parental cells [2]: 100 nM
Lowest concentration that suppressed the growth of parental cells [3]: 100 nM
